# How the values were obtained:
# [1] = Triplet-triplet transient absorption / photoacoustic calorimetry; assay type: physicochemical
# Experimental: The triplet-triplet transient absorption was recorded in an Applied Photophysics LKS.60 laser flash photolysis spectrometer, with a Hewlett-Packard Infinium Oscilloscope and a Spectra-Physics Quanta-Ray GCR-130 Nd:YAG laser as excitation source. The pulse excitation was set at 355 nm.
# The thermal energy released after electronic excitation was measured by time-resolved photoacoustic calorimetry using a front-face irradiation photoacoustic cell and a EKSPLA OPO model PG-122 pumped by an EKSPLA Nd:YAG. The signal detection was made using a 2.25 MHz Panametrics transducer. The excitation was at 690 nm and azulene was used as photoacoustic calorimetry reference.
# (§1) This is indicative of negligible aggregation between the molecules, which exist mostly as monomers at these concentrations in the solvents studied. Table 1 presents the infrared molar absorption coefficient (εmax) and wavelength maximum in ethanol of a typical carboxamide halogenated bacteriochlorin derivative of Formula (I). The same table also presents triplet lifetimes (τT) in air and N2 saturated solutions, fluorescence lifetime (τS), the quantum yields of fluorescence (ΦF), triplet state formation (ΦT), and singlet oxygen generation (ΦΔ) in ethanol, and photodegradation quantum yield (Φpd) in methanol:PBS (3:2). Triplet decays were clearly mono-exponential and in air-saturated ethanol the triplet lifetimes were in the range of 200 to 300 nanoseconds. Such values are consistent with diffusion limited energy transfer from the triplet state of the photosensitizer to molecular oxygen through a charge-transfer interaction (8). The absorption intensity of the test compounds in the photobleaching studies followed a mono-exponential decrease as a function of the illumination time.
# [2] = Singlet oxygen quantum yield (phosphorescence at 1270 nm); assay type: physicochemical; details: in ethanol
# Description: The experiments were run at room temperature using the Nd-YAG laser Spectra-Physics Quanta-Ray GRC-130. The solutions were excited at 355 nm and the phosphorescence of singlet oxygen collected at 1270 nm in a Hamamatsu R5509-42 photomultiplier, cooled to 193 K in a liquid nitrogen chamber, after selection of the wavelength with a monochromator with 600 lines grading. Phenalenone was used as a reference of singlet oxygen generator. A Newport filter model 10LWF-1000-B was used in the emission to avoid scattering and fluorescence.
# as §1, with “Such values are consistent with diffusion limited energy transfer from the triplet state of the photosensitizer to molecular oxygen through a charge-transfer interaction (8). The absorption intensity of the test compounds in the photobleaching studies followed a mono-exponential decrease as a function of the illumination time.” left out
# [3] = Photobleaching (photodecomposition quantum yield); assay type: physicochemical; details: methanol:PBS (3:2)
# [4] = n-Octanol:PBS partition ratio (shake-flask); assay type: physicochemical
# Description: a modification of the shake-flask method was employed to determine the equilibrium concentrations of the photosensitizer in n-octanol and in phosphate-buffered saline (PBS) mixed in equal volumes, using the typical fluorescence band of the same photosensitizer and calibration curves.
# This example describes the evaluation of in vitro phototoxicity of a carboxamide bacteriochlorin with formula IX after light irradiation, and their potential for PDT application in the treatment of acne vulgaris. The phototoxicity was measured according to the description in the Materials and Methods section. The n-octanol:PBS partition ratio of IX is POW=2.9±0.5. An adequate formulation for this carboxamide bacteriochlorin is PEG400:DMSO (55:45). The phototoxicity of the test compound is proportional to the inhibition of P. acnes viability relative to the non-treated control, and is represented in FIG. 5 in the form of CFU reduction as a function of photosensitizer concentration for the light doses of 4 and 10 J/cm^2.
# [5] = test system: A549 (human lung adenocarcinoma) cell line; assay: In vitro phototoxicity / dark toxicity towards A549 cells; assay type: cell-based
# Experimental: (§2) Phototoxicity towards cancer cell lines was evaluated in vitro using A549 (human lung adenocarcinoma) and CT26 (mouse colon adenocarcinoma) cell lines. The cells were cultured in Dulbecco's modified Eagles's medium (DMEM) supplemented with 10% heat-inactivated fetal bovine serum and 1% penicillin. Cells were plated at a density of 20,000/well and 15,000/well respectively, in flat-bottom 96-well plates. On the following day, diluted solutions of the test compound were prepared (1 mM stock) and added to the cells for 30-min incubation. […] The wells were washed two times with PBS and irradiated after 30-min of incubation using the LED light described above. Light dose was 1 J/cm^2. The medium was replaced with fresh one after irradiation and the plates were incubated for 24 h, at which time the cellular viability was assessed by resazurin method using a microplate spectrophotometer (Synergy HT Biotek).
# (§3) This example describes the evaluation of in vitro phototoxicity of a carboxamide bacteriochlorin with formula IX after light irradiation, and their potential for PDT of cancer. The formulation employed was the same as that of Example 4. […] The phototoxicity was measured according to the description in the Materials and Methods section. The phototoxicity of the test compound was assessed in terms of the percentage of survival of the cells for various concentrations of the test compound incubated for 30 min, followed by washings with PBS, addition of the culture medium and illumination with a light dose of 1 J/cm^2.
# [6] = test system: CT26 (mouse colon adenocarcinoma) cell line; assay: In vitro phototoxicity / dark toxicity towards CT26 cells; assay type: cell-based
# Experimental: as §2, §3
# CT26 subcutaneous tumors = assay: In vivo antitumor PDT of CT26 subcutaneous tumors in BALB/c mice; details: 15 min drug-to-light interval
# [7] = 30 min incubation, irradiated with 1 J/cm^2
structure (smiles),measurement,setting,value
"CNC(=O)c1c2nc(c(-c3c(F)cccc3F)c3ccc(cc4nc(c(-c5c(F)cccc5F)c5ccc1[nH]5)CC4)[nH]3)CC2 [formula IX, 5-methylcarboxamide-10,20-bis-(2,6-difluorophenyl)bacteriochlorin]",τT (N2) triplet lifetime,[1]; N2-saturated ethanol,71 ± 5 μs
same,τT (air) triplet lifetime,[1]; air-saturated ethanol,210 ns
same,ΦT triplet state formation quantum yield,[1]; in ethanol,0.45
same,ΦΔ singlet oxygen quantum yield,[2],0.38
same,Φpd photodecomposition quantum yield,[3],1.5 10^−4
same,Log POW,[4],2.9
same,n-octanol:PBS partition ratio POW,[4],2.9±0.5
same,IC50,[5]; [7],2.5 nM
same,photosensitizer concentration at which nearly all cells are killed,"[5]; A549, 30 min incubation, 1 J/cm^2 (FIG. 6)",50 nM
same,concentration with no signs of toxicity in the dark,"[5]; A549, incubation in the dark for 30 min",up to 40 μM
same,IC50,[6]; [7],5.8 nM
same,photosensitizer concentration at which nearly all cells are killed,"[6]; CT26, 30 min incubation, 1 J/cm^2 (FIG. 6)",50 nM
same,concentration with no signs of toxicity in the dark,"[6]; CT26, incubation in the dark for 30 min",up to 40 μM
same,cure,"CT26 subcutaneous tumors; 0.15 mg/kg i.v., 40 J/cm^2",100%
same,tolerability of PDT,"CT26 subcutaneous tumors; 0.15 mg/kg i.v., 40 J/cm^2",very well tolerated
same,tumor response,"CT26 subcutaneous tumors; 0.15 mg/kg i.v., 40 J/cm^2",complete regression
same,time post-PDT by which animals died of acute response to the treatment,"CT26 subcutaneous tumors; 0.3 mg/kg i.v., 40 J/cm^2 at 749 nm",less than 72 h

# Reference: US10450322B2, “Low molecular weight derivatives of carboxamide halogenated porphyrins, namely chlorins and bacteriochlorins, and their applications thereof” (LUZITIN, S.A., priority 2015, dated 2019)
